Assay results: US9211310B2, “Use of a Chinese medicine composition in preparing medicaments for treating secondary prevention of myocardial infarction” (TASLY PHARMACEUTICAL GROUP CO., LTD, priority 2010, dated 2015)

Test system: patients after acute myocardial infarction
Experiment: TCM symptom score, total and single (chest pain, chest tightness, short breath, fatigue, palpitation, spontaneous perspiration, pale complexion), same clinical trial
Format: in vivo, human
Parameters: total score of TCM symptom, Mean / total score of TCM symptom, Min / total score of TCM symptom, Max / total score of TCM symptom, Md / change of total score of TCM symptom, Mean / change of total score of TCM symptom, Max / change of total score of TCM symptom, Md: scale not given here
Source text: 3508 patients who were in accordance with the diagnostic standards of AMI for 28 days to 2 years and differentiated as Qi deficiency and blood stagnation syndrome by TCM were studied. 0.5 g Chinese medicine composition prepared by the method of EXAMPLE 1 (Coded as QSYQ) was administrated half an hour after meal, 3 times per day.
They included the overall survival time, angina pectoris score, TCM symptom score and life quality score, where angina pectoris score, TCM symptom score and life quality score were evaluated at randomization, in 1st, 3rd, 6th, 9th, 12th month after treatment and 18th month after follow-up.
The analysis method referred to the angina pectoris score.

SMILES: CC(=O)Oc1ccccc1C(=O)O [Control group, aspirine]
- change of pale complexion −1, number of patients (FAS, Follow-up-baseline): 39
- change of pale complexion −1, percent of patients (FAS, Follow-up-baseline): (2.75%)
- change of palpitation 0, number of patients (FAS, Follow-up-baseline): 690
- change of palpitation 0, percent of patients (FAS, Follow-up-baseline): (48.46%)
- change of palpitation 1, number of patients (FAS, Follow-up-baseline): 528
- change of palpitation 1, percent of patients (FAS, Follow-up-baseline): (37.08%)
- change of palpitation 2, number of patients (FAS, Follow-up-baseline): 97
- change of palpitation 2, percent of patients (FAS, Follow-up-baseline): (6.81%)
- change of palpitation 3, number of patients (FAS, Follow-up-baseline): 15
- change of palpitation 3, percent of patients (FAS, Follow-up-baseline): (1.05%)
- change of palpitation −1, number of patients (FAS, Follow-up-baseline): 90
- change of palpitation −1, percent of patients (FAS, Follow-up-baseline): (6.32%)
- change of palpitation −2, number of patients (FAS, Follow-up-baseline): 3
- change of palpitation −2, percent of patients (FAS, Follow-up-baseline): (0.21%)
- change of palpitation −3, number of patients (FAS, Follow-up-baseline): 1
- change of palpitation −3, percent of patients (FAS, Follow-up-baseline): (0.07%)
- change of short breath 0, % of patients (FAS, Follow-up-baseline): (52.21%)
- change of short breath 0, number of patients (FAS, Follow-up-baseline): 744
- change of short breath 2, % of patients (FAS, Follow-up-baseline): (36.42%)
- change of short breath 2, number of patients (FAS, Follow-up-baseline): 519
- change of short breath 4, % of patients (FAS, Follow-up-baseline): (5.47%)
- change of short breath 4, number of patients (FAS, Follow-up-baseline): 78
- change of short breath 6, % of patients (FAS, Follow-up-baseline): (0.77%)
- change of short breath 6, number of patients (FAS, Follow-up-baseline): 11
- change of short breath −2, % of patients (FAS, Follow-up-baseline): (4.98%)
- change of short breath −2, number of patients (FAS, Follow-up-baseline): 71
- change of short breath −4, % of patients (FAS, Follow-up-baseline): (0.00%)
- change of short breath −4, number of patients (FAS, Follow-up-baseline): 0
- change of short breath −6, % of patients (FAS, Follow-up-baseline): (0.14%)
- change of short breath −6, number of patients (FAS, Follow-up-baseline): 2
- change of spontaneous perspiration 0, number of patients (FAS, Follow-up-baseline): 656
- change of spontaneous perspiration 0, percent of patients (FAS, Follow-up-baseline): (46.07%)
- change of spontaneous perspiration 1, number of patients (FAS, Follow-up-baseline): 466
- change of spontaneous perspiration 1, percent of patients (FAS, Follow-up-baseline): (32.72%)
- change of spontaneous perspiration 2, number of patients (FAS, Follow-up-baseline): 141
- change of spontaneous perspiration 2, percent of patients (FAS, Follow-up-baseline): (9.90%)
- change of spontaneous perspiration 3, number of patients (FAS, Follow-up-baseline): 32
- change of spontaneous perspiration 3, percent of patients (FAS, Follow-up-baseline): (2.25%)
- change of spontaneous perspiration −1, percent of patients (FAS, Follow-up-baseline): (8.36%)
- change of spontaneous perspiration −2, number of patients (FAS, Follow-up-baseline): 8
- change of spontaneous perspiration −2, percent of patients (FAS, Follow-up-baseline): (0.56%)
- change of spontaneous perspiration −3, number of patients (FAS, Follow-up-baseline): 2
- change of spontaneous perspiration −3, percent of patients (FAS, Follow-up-baseline): (0.14%)
- change of total score of TCM symptom, Max (FAS, Follow-up-baseline): 27.00
- change of total score of TCM symptom, Md (FAS, Follow-up-baseline): −5.00
- change of total score of TCM symptom, Mean (FAS, Follow-up-baseline): −6.18
- change of total score of TCM symptom, Min (FAS, Follow-up-baseline): −29.00
- change of chest pain score 0, number of patients (Follow-up-baseline, FAS): 769
- change of chest pain score 0, percent of patients (Follow-up-baseline, FAS): (54.08%)
- change of chest pain score 3, number of patients (Follow-up-baseline, FAS): 426
- change of chest pain score 3, percent of patients (Follow-up-baseline, FAS): (29.96%)
- change of chest pain score 6, number of patients (Follow-up-baseline, FAS): 158
- change of chest pain score 6, percent of patients (Follow-up-baseline, FAS): (11.11%)
- change of chest pain score 9, number of patients (Follow-up-baseline, FAS): 9
- change of chest pain score 9, percent of patients (Follow-up-baseline, FAS): (0.63%)
- change of chest pain score −2, number of patients (Follow-up-baseline, FAS): 1
- change of chest pain score −2, percent of patients (Follow-up-baseline, FAS): (0.07%)
- change of chest pain score −3, number of patients (Follow-up-baseline, FAS): 47
- change of chest pain score −3, percent of patients (Follow-up-baseline, FAS): (3.31%)
- change of chest pain score −6, number of patients (Follow-up-baseline, FAS): 11
- change of chest pain score −6, percent of patients (Follow-up-baseline, FAS): (0.77%)
- change of chest pain score −9, number of patients (Follow-up-baseline, FAS): 1
- change of chest pain score −9, percent of patients (Follow-up-baseline, FAS): (0.07%)
- change of chest tightness score 0, number of patients (Follow-up-baseline, FAS): 728
- change of chest tightness score 0, percent of patients (Follow-up-baseline, FAS): (51.09%)
- change of chest tightness score 1, number of patients (Follow-up-baseline, FAS): 1
- change of chest tightness score 1, percent of patients (Follow-up-baseline, FAS): (0.07%)
- change of chest tightness score 3, number of patients (Follow-up-baseline, FAS): 544
- change of chest tightness score 3, percent of patients (Follow-up-baseline, FAS): (38.18%)
- change of chest tightness score 6, number of patients (Follow-up-baseline, FAS): 87
- change of chest tightness score 6, percent of patients (Follow-up-baseline, FAS): (6.11%)
- change of chest tightness score 9, number of patients (Follow-up-baseline, FAS): 5
- change of chest tightness score 9, percent of patients (Follow-up-baseline, FAS): (0.35%)
- change of chest tightness score −3, number of patients (Follow-up-baseline, FAS): 55
- change of chest tightness score −3, percent of patients (Follow-up-baseline, FAS): (3.86%)
- change of chest tightness score −6, number of patients (Follow-up-baseline, FAS): 4
- change of chest tightness score −6, percent of patients (Follow-up-baseline, FAS): (0.28%)
- change of chest tightness score −9, number of patients (Follow-up-baseline, FAS): 1
- change of chest tightness score −9, percent of patients (Follow-up-baseline, FAS): (0.07%)
- change of chest pain score 0, number of patients (Follow-up-baseline, PP): 750
- change of chest pain score 0, percent of patients (Follow-up-baseline, PP): (54.03%)
- change of chest pain score 3, number of patients (Follow-up-baseline, PP): 417
- change of chest pain score 3, percent of patients (Follow-up-baseline, PP): (30.04%)
- change of chest pain score 6, number of patients (Follow-up-baseline, PP): 155
- change of chest pain score 6, percent of patients (Follow-up-baseline, PP): (11.17%)
- change of chest pain score 9, number of patients (Follow-up-baseline, PP): 8
- change of chest pain score 9, percent of patients (Follow-up-baseline, PP): (0.58%)
- change of chest pain score −2, number of patients (Follow-up-baseline, PP): 1
- change of chest pain score −2, percent of patients (Follow-up-baseline, PP): (0.07%)
- change of chest pain score −3, number of patients (Follow-up-baseline, PP): 47
- change of chest pain score −3, percent of patients (Follow-up-baseline, PP): (3.39%)
- change of chest pain score −6, number of patients (Follow-up-baseline, PP): 9
- change of chest pain score −6, percent of patients (Follow-up-baseline, PP): (0.65%)
- change of chest pain score −9, number of patients (Follow-up-baseline, PP): 1
- change of chest pain score −9, percent of patients (Follow-up-baseline, PP): (0.07%)
- change of chest tightness score 0, number of patients (Follow-up-baseline, PP): 712
- change of chest tightness score 0, percent of patients (Follow-up-baseline, PP): (51.19%)
- change of chest tightness score 1, number of patients (Follow-up-baseline, PP): 1
- change of chest tightness score 1, percent of patients (Follow-up-baseline, PP): (0.07%)
- change of chest tightness score 3, number of patients (Follow-up-baseline, PP): 528
- change of chest tightness score 3, percent of patients (Follow-up-baseline, PP): (37.96%)
- change of chest tightness score 6, number of patients (Follow-up-baseline, PP): 86
- change of chest tightness score 6, percent of patients (Follow-up-baseline, PP): (6.18%)
- change of chest tightness score 9, number of patients (Follow-up-baseline, PP): 5
- change of chest tightness score 9, percent of patients (Follow-up-baseline, PP): (0.36%)
- change of chest tightness score −3, number of patients (Follow-up-baseline, PP): 54
- change of chest tightness score −3, percent of patients (Follow-up-baseline, PP): (3.88%)
- change of chest tightness score −6, number of patients (Follow-up-baseline, PP): 4
- change of chest tightness score −6, percent of patients (Follow-up-baseline, PP): (0.29%)
- change of chest tightness score −9, number of patients (Follow-up-baseline, PP): 1
- change of chest tightness score −9, percent of patients (Follow-up-baseline, PP): (0.07%)
- chest pain score 0, number of patients (Follow-up, FAS): 754
- chest pain score 0, percent of patients (Follow-up, FAS): (52.84%)
- chest pain score 2, number of patients (Follow-up, FAS): 1
- chest pain score 2, percent of patients (Follow-up, FAS): (0.07%)
- chest pain score 3, number of patients (Follow-up, FAS): 479
- chest pain score 3, percent of patients (Follow-up, FAS): (33.57%)
- chest pain score 6, number of patients (Follow-up, FAS): 192
- chest pain score 6, percent of patients (Follow-up, FAS): (13.45%)
- chest pain score 9, number of patients (Follow-up, FAS): 1
- chest pain score 9, percent of patients (Follow-up, FAS): (0.07%)
- chest tightness score 0, number of patients (Follow-up, FAS): 754
- chest tightness score 0, percent of patients (Follow-up, FAS): (52.84%)
- chest tightness score 2, number of patients (Follow-up, FAS): 1
